The results in this text go back to patent US20250339569A1, “CARBONIC ANHYDRASE IX LIGANDS” (priority 2021, published 2025).

Starred links: 1 amine or outer side, 2 acyl side, 3 side chain; linkers in the order of their positions; H or OH if unused. Positions of bridges follow the written chain, without caps; N, C: chain ends. Non-standard residues stand in square brackets, D forms with d. Residues, ends and D or L forms follow the SMILES beside them. *: point of attachment. NH(CH2)3NH(O2Oc(DOTA)) = O=C(O)CN1CCN(CC(=O)O)CCN(CC(=O)NCCOCCOCC(=O)NCCCN*)CCN(CC(=O)O)CC1; X63 = O=C1CC[C@@H](C(=O)Nc2cccc(C[C@H](N[*:1])C(=O)[*:2])c2)N1; DOTA = O=C(O)CN1CCN(CC(=O)O)CCN(CC(=O)*)CCN(CC(=O)O)CC1; X66 = NC(=O)CCC(=O)Nc1cccc(C[C@H](N[*:1])C(=O)[*:2])c1; Phe(4-NH2) = Nc1ccc(C[C@H](N)C(=O)O)cc1; mXylylene = c1cc(C[*:1])cc(C[*:2])c1; X49 = N#Cc1ccc(N2CCCN(*)CC2)c(F)c1; Orn(Me2) = CN(C)CCC[C@H](N)C(=O)O; Trx = NC[C@H]1CC[C@H](C(=O)O)CC1; X2 = O=C(CN1CCC(N[*:1])CC1)[*:2]; Pen = CC(C)(S)[C@H](N)C(=O)O; 4Amb = NCc1ccc(C(=O)O)cc1; Isovaleryl = CC(C)CC(=O)*; Orn = NCCC[C@H](N)C(=O)O; Dap = NC[C@H](N)C(=O)O; X56 = O=C(c1nccs1)*

For the first assay, the target named is T1, CAIX-expressing human HT-29 colorectal cancer cells (Homo sapiens, UniProt Q16790).
T1 construct: CAIX-expressing human HT-29 colorectal cancer cells; host or cells: HT-29 human colorectal cancer cells
The assay can be described thus: FACS binding assay (IC50 determination, competition with tracer 3BP-2776 or 3BP-4149). The conditions noted are these: FACS binding assay, HT-29 cells, competition with tracer 3BP-2776 (10 nM, biotin-labeled), 4° C., 1 hour; read-out: pIC50 category (activity) (converted). A digest of the protocol:
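HT-29 cells in FACS buffer (PBS, 1% FCS) at 500.000 cells/ml were exposed to compounds competing with a labelled tracer, with biotinylated compounds detected by 1 μg/mL APC-streptavidin for 30 min on ice. APC/Cy5 median fluorescence was read by flow cytometry and IC50 derived by 4PL fit.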
Take `CC(C)C[C@@H]1NC(=O)[C@H](Cc2cccc(NC(=O)CCC(N)=O)c2)NC(=O)[C@H](CC(=O)O)NC(=O)[C@H]2CCCN2C(=O)[C@H](CCC(=O)O)NC(=O)[C@@H](NC(=O)[C@H](Cc2ccc(O)cc2)NC(=O)[C@@H](NC(=O)CN2CCC(NC(=O)CN3CCN(CC(=O)O)CCN(CC(=O)O)CCN(CC(=O)O)CC3)CC2)C(C)C)CSCc2cccc(c2)CSC[C@@H](C(N)=O)NC(=O)[C@H](CO)NC(=O)[C@H](Cc2c[nH]c3ccccc23)NC(=O)[C@H]([C@@H](C)O)NC1=O` [3BP-4238] ({DOTA}-[X2]VYCE[dP]D[X66]LTWSC-NH2; linker 4-13 via mXylylene): the IC50 was 10 to 79.4 nM.

In the case of `CC(C)C[C@@H]1NC(=O)[C@H](Cc2ccc(NC(=O)c3nccs3)cc2)NC(=O)[C@H](CC(=O)O)NC(=O)[C@H]2CCCN2C(=O)[C@H](CCC(=O)O)NC(=O)[C@@H](NC(=O)[C@H](Cc2ccc(O)cc2)NC(=O)[C@@H](NC(=O)CN2CCC(NC(=O)CN3CCN(CC(=O)O)CCN(CC(=O)O)CCN(CC(=O)O)CC3)CC2)C(C)C)CSCc2cccc(c2)CSC[C@@H](C(N)=O)NC(=O)[C@H](CO)NC(=O)[C@H](Cc2c[nH]c3ccccc23)NC(=O)[C@H]([C@@H](C)O)NC1=O` [3BP-4180] ({DOTA}-[X2]VYCE[dP]D[Phe(4-NH2)](X56)LTWSC-NH2; linker 4-13 via mXylylene), the IC50 was 100 to 794 nM.

For the compound `CC(C)C[C@@H]1NC(=O)[C@H](Cc2c[nH]c3ccccc23)NC(=O)[C@H](CC(=O)O)NC(=O)[C@H]2CCCN2C(=O)[C@H](CCC(=O)O)NC(=O)[C@@H](NC(=O)[C@H](Cc2ccc(O)cc2)NC(=O)[C@@H](NC(=O)CN2CCC(NC(=O)CN3CCN(CC(=O)O)CCN(CC(=O)O)CCN(CC(=O)O)CC3)CC2)C(C)C)CSCc2cccc(c2)CSC[C@@H](C(N)=O)NC(=O)[C@H](CO)NC(=O)[C@H](Cc2c[nH]c3ccccc23)NC(=O)[C@H](CCCN(C)C)NC1=O` [3BP-4099] ({DOTA}-[X2]VYCE[dP]DWL[Orn(Me2)]WSC-NH2; linker 4-13 via mXylylene), the IC50 was less than 10 nM.

For `CC(C)C[C@@H]1NC(=O)[C@H](Cc2cccc(NC(=O)[C@@H]3CCC(=O)N3)c2)NC(=O)[C@H](CC(=O)O)NC(=O)[C@H]2CCCN2C(=O)[C@H](CCC(=O)O)NC(=O)[C@@H](NC(=O)[C@H](Cc2ccc(O)cc2)NC(=O)[C@@H](NC(=O)CN2CCC(NC(=O)CN3CCN(CC(=O)O)CCN(CC(=O)O)CCN(CC(=O)O)CC3)CC2)C(C)C)CSCc2cccc(c2)CSC[C@@H](C(N)=O)NC(=O)[C@H](CO)NC(=O)[C@H](Cc2c[nH]c3ccccc23)NC(=O)[C@H]([C@@H](C)O)NC1=O` [3BP-4241] ({DOTA}-[X2]VYCE[dP]D[X63]LTWSC-NH2; linker 4-13 via mXylylene), the IC50 was 10 to 79.4 nM.

On to `CC(=O)N[C@H](C(=O)N[C@@H](Cc1ccc(O)cc1)C(=O)N[C@H]1CSCc2cccc(c2)CSC[C@@H](C(N)=O)NC(=O)[C@H](CO)NC(=O)[C@H](Cc2c[nH]c3ccccc23)NC(=O)[C@@H]2CC(=O)NCCC[C@H](NC(=O)[C@H]3CCCN3C(=O)[C@H](CCC(=O)O)NC1=O)C(=O)N[C@@H](Cc1c[nH]c3ccccc13)C(=O)N[C@@H](CC(C)C)C(=O)N2)C(C)C` [3BP-4005] (Ac-VYCE[dP][Orn]WLDWSC-NH2; linker 3-12 via mXylylene; lactam 6-9), for which the IC50 is less than 10 nM.

On to `CC(C)C[C@@H]1NC(=O)[C@H](Cc2c[nH]c3ccccc23)NC(=O)[C@H](CC(=O)O)NC(=O)[C@H]2CCCCNC(=O)CC[C@H](NC1=O)C(=O)N[C@@H](Cc1c[nH]c3ccccc13)C(=O)N[C@@H](CO)C(=O)N[C@H](C(N)=O)CSCc1cccc(c1)CSC[C@H](NC(=O)[C@H](Cc1ccc(O)cc1)NC(=O)[C@@H](NC(=O)CN1CCC(NC(=O)CN3CCN(CC(=O)O)CCN(CC(=O)O)CCN(CC(=O)O)CC3)CC1)C(C)C)C(=O)N[C@@H](CCC(=O)O)C(=O)N2` [3BP-4114] ({DOTA}-[X2]VYCE[dK]DWLEWSC-NH2; linker 4-13 via mXylylene; lactam 6-10), for which the IC50 is 10 to 79.4 nM.

For `CC(C)C[C@@H]1NC(=O)[C@H](Cc2ccc(O)cc2)NC(=O)[C@H](CC(=O)O)NC(=O)[C@H]2CCCN2C(=O)[C@H](CCC(=O)O)NC(=O)[C@@H](NC(=O)[C@H](Cc2ccc(O)cc2)NC(=O)[C@@H](NC(=O)CN2CCC(NC(=O)CN3CCN(CC(=O)O)CCN(CC(=O)O)CCN(CC(=O)O)CC3)CC2)C(C)C)CSCc2cccc(c2)CSC[C@@H](C(N)=O)NC(=O)[C@H](CO)NC(=O)[C@H](Cc2c[nH]c3ccccc23)NC(=O)[C@H]([C@@H](C)O)NC1=O` [3BP-4136] ({DOTA}-[X2]VYCE[dP]DYLTWSC-NH2; linker 4-13 via mXylylene), the IC50 was less than 10 nM.

In the case of `CC(C)C[C@@H]1NC(=O)[C@H](Cc2c[nH]c3ccccc23)NC(=O)[C@H](CC(=O)O)NC(=O)[C@H]2CCCN2C(=O)[C@H](CCC(=O)O)NC(=O)[C@@H]2CSCc3cccc(c3)CSC[C@@H](C(N)=O)NC(=O)[C@H](CCC(=O)NC[C@H](NC(=O)[C@@H](NC(=O)CN3CCC(NC(=O)CN4CCN(CC(=O)O)CCN(CC(=O)O)CCN(CC(=O)O)CC4)CC3)C(C)C)C(=O)N2)NC(=O)[C@H](Cc2c[nH]c3ccccc23)NC(=O)[C@H]([C@@H](C)O)NC1=O` [3BP-4177] ({DOTA}-[X2]V[Dap]CE[dP]DWLTWEC-NH2; lactam 3-12; linker 4-13 via mXylylene), the IC50 was less than 10 nM.

The same assay, now with this note: FACS binding assay, HT-29 cells, competition with tracer 3BP-4149 (3 nM, Cy5-labeled), 4° C., 1 hour; read-out: pIC50 category (activity) (converted).
For `CC(C)C[C@@H]1NC(=O)[C@H](Cc2c[nH]c3ccccc23)NC(=O)[C@H](CCC(=O)N2CCCN(c3ccc(C#N)cc3F)CC2)NC(=O)[C@H]2CCCN2C(=O)[C@H](CCC(=O)O)NC(=O)[C@@H](NC(=O)[C@H](Cc2ccc(O)cc2)NC(=O)[C@@H](NC(=O)CN2CCC(NC(=O)CN3CCN(CC(=O)O)CCN(CC(=O)O)CCN(CC(=O)O)CC3)CC2)C(C)C)CSCc2cccc(c2)CSC[C@@H](C(N)=O)NC(=O)[C@H](CO)NC(=O)[C@H](Cc2c[nH]c3ccccc23)NC(=O)[C@H]([C@@H](C)O)NC1=O` [3BP-4389] ({DOTA}-[X2]VYCE[dP]E(X49)WLTWSC-NH2; linker 4-13 via mXylylene), the IC50 is 10 to 79.4 nM.

Staying with this assay, now noted: FACS competition on HT-29 cells, Tracer ID 3BP-2776 (10 nM, biotin-labeled), 4° C., 1 hour; read-out: pIC50 category (activity) (converted).
`CC(=O)N[C@H](C(=O)N[C@@H](Cc1ccc(O)cc1)C(=O)N[C@H]1CSCc2cccc(c2)CSC[C@@H](C(=O)NCc2ccc(C(=O)N[C@@H](CCCCNC(=O)CN3CCN(CC(=O)O)CCN(CC(=O)O)CCN(CC(=O)O)CC3)C(N)=O)cc2)NC(=O)[C@H](C)NC(=O)[C@H](Cc2c[nH]c3ccccc23)NC(=O)[C@H]([C@@H](C)O)NC(=O)[C@H](CC(C)C)NC(=O)[C@H](Cc2c[nH]c3ccccc23)NC(=O)[C@H](CC(=O)O)NC(=O)[C@H]2CCCN2C(=O)[C@H](CCC(=O)O)NC1=O)C(C)C` [3BP-3477] (Ac-VYCE[dP]DWLTWAC[4Amb]K(DOTA)-NH2; linker 3-12 via mXylylene): the IC50 was less than 10 nM.

For `CC(C)CC(=O)N[C@@H](CC(=O)O)C(=O)N[C@H]1CSCc2cccc(c2)CSC[C@@H](C(N)=O)NC(=O)[C@H](CCC(=O)NCCCNC(=O)COCCOCCNC(=O)CN2CCN(CC(=O)O)CCN(CC(=O)O)CCN(CC(=O)O)CC2)NC(=O)[C@H](Cc2c[nH]c3ccccc23)NC(=O)[C@H]([C@@H](C)O)NC(=O)[C@H](CC(C)C)NC(=O)[C@H](Cc2c[nH]c3ccccc23)NC(=O)[C@H](CC(=O)O)NC(=O)[C@H]2CCCN2C(=O)[C@H](CCC(=O)O)NC1=O` [3BP-3871] (Isovaleryl-DCE[dP]DWLTWE(NH(CH2)3NH(O2Oc(DOTA)))C-NH2; linker 2-11 via mXylylene), the IC50 was 10 to 79.4 nM.

As for `CC(C)CC(=O)N[C@H](C(=O)N[C@@H](Cc1ccc(O)cc1)C(=O)N[C@H]1CSCc2cccc(c2)CSC[C@@H](C(N)=O)NC(=O)[C@H](CCC(N)=O)NC(=O)[C@H](Cc2c[nH]c3ccccc23)NC(=O)[C@H]([C@@H](C)O)NC(=O)[C@H](CC(C)C)NC(=O)[C@H](Cc2c[nH]c3ccccc23)NC(=O)[C@H](CC(=O)O)NC(=O)CNC(=O)[C@H](CCC(=O)O)NC1=O)C(C)C` [3BP-3111] (Isovaleryl-VYCEGDWLTWQC-NH2; linker 3-12 via mXylylene), the IC50 was less than 10 nM.

Regarding `CC(=O)N[C@H](C(=O)N[C@@H](Cc1ccc(O)cc1)C(=O)N[C@@H]1C(=O)N[C@@H](CCC(=O)O)C(=O)NCC(=O)N[C@@H](CC(=O)O)C(=O)N[C@@H](Cc2c[nH]c3ccccc23)C(=O)N[C@@H](CC(C)C)C(=O)N[C@@H]([C@@H](C)O)C(=O)N[C@@H](Cc2c[nH]c3ccccc23)C(=O)N[C@@H](CCC(N)=O)C(=O)N[C@H](C(N)=O)CSCc2cccc(c2)CSC1(C)C)C(C)C` [3BP-3063] (Ac-VY[Pen]EGDWLTWQC-NH2; linker 3-12 via mXylylene), the IC50 is 10 to 79.4 nM.

Consider `CC(C)CC(=O)N[C@@H](CCC(=O)O)C(=O)N[C@H]1CSCc2cccc(c2)CSC[C@@H](C(N)=O)NC(=O)[C@H](CCC(=O)NCCCNC(=O)COCCOCCNC(=O)CN2CCN(CC(=O)O)CCN(CC(=O)O)CCN(CC(=O)O)CC2)NC(=O)[C@H](Cc2c[nH]c3ccccc23)NC(=O)[C@H]([C@@H](C)O)NC(=O)[C@H](CC(C)C)NC(=O)[C@H](Cc2c[nH]c3ccccc23)NC(=O)[C@H](CC(=O)O)NC(=O)[C@H]2CCCN2C(=O)[C@H](CCC(=O)O)NC1=O` [3BP-3872] (Isovaleryl-ECE[dP]DWLTWE(NH(CH2)3NH(O2Oc(DOTA)))C-NH2; linker 2-11 via mXylylene), for which the IC50 is 10 to 79.4 nM.

`CC(C)C[C@@H]1NC(=O)[C@H](Cc2c[nH]c3ccccc23)NC(=O)[C@H](CC(=O)O)NC(=O)[C@H]2CCCN2C(=O)[C@H](CCC(=O)O)NC(=O)[C@@H](NC(=O)[C@H](Cc2ccc(O)cc2)NC(=O)[C@@H](NC(=O)[C@H]2CC[C@H](CNC(=O)CN3CCN(CC(=O)O)CCN(CC(=O)O)CCN(CC(=O)O)CC3)CC2)C(C)C)CSCc2cccc(c2)CSC[C@@H](C(N)=O)NC(=O)[C@H](C)NC(=O)[C@H](Cc2c[nH]c3ccccc23)NC(=O)[C@H]([C@@H](C)O)NC1=O` [3BP-3430] ({DOTA-Trx}-VYCE[dP]DWLTWAC-NH2; linker 3-12 via mXylylene): the IC50 is less than 10 nM.
